Measured values as given in US20150105252A1, “SUBSTITUTED PYRAZOLES AS HERBICIDES” (E I DU PONT DE NEMOURS AND COMPANY, priority 2013, published 2015).

Assays:
[1] = test system: canarygrass; assay: Test D preemergence; assay type: in vivo, Phalaris minor; settings: Preemergence, scale 0 to 100
Procedure, shortened: (§1)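 Scores of 0 (no effect) to 100 (complete control) come from visual comparison with untreated plants 14–21 days after spraying. Applications were made pre-emergence to silt loam or post-emergence to plants 2–18 cm tall.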

[2] = test system: deadnettle; assay: Test D preemergence; assay type: in vivo, Lamium amplexicaule; settings: Preemergence, scale 0 to 100
Procedure, shortened: as §1

[3] = test system: ryegrass, Italian; assay: Test D preemergence; assay type: in vivo, Lolium multiflorum; settings: Preemergence, scale 0 to 100
Procedure, shortened: as §1

[4] = test system: kochia; assay: Test D preemergence; assay type: in vivo, Kochia scoparia; settings: Preemergence, scale 0 to 100
Procedure, shortened: as §1

[5] = test system: lambsquarters; assay: Test D preemergence; assay type: in vivo, Chenopodium album; settings: Preemergence, scale 0 to 100
Procedure, shortened: as §1

[6] = test system: buckwheat, wild; assay: Test D preemergence; assay type: in vivo, Polygonum convolvulus; settings: Preemergence, scale 0 to 100
Procedure, shortened: as §1

[7] = test system: mustard, wild; assay: Test D preemergence; assay type: in vivo, Sinapis arvensis; settings: Preemergence, scale 0 to 100
Procedure, shortened: as §1

[8] = test system: bromegrass, downy; assay: Test D postemergence; assay type: in vivo, Bromus tectorum; settings: scale 0 to 100
Procedure, shortened: as §1

[9] = test system: field poppy; assay: Test D postemergence; assay type: in vivo, Papaver rhoeas; settings: scale 0 to 100
Procedure, shortened: as §1

[10] = test system: foxtail, green; assay: Test D postemergence; assay type: in vivo, Setaria viridis; settings: scale 0 to 100
Procedure, shortened: as §1

[11] = test system: lambsquarters; assay: Test D postemergence; assay type: in vivo, Chenopodium album; settings: scale 0 to 100
Procedure, shortened: as §1

[12] = test system: speedwell; assay: Test D postemergence; assay type: in vivo, Veronica persica; settings: scale 0 to 100
Procedure, shortened: as §1

[13] = test system: barley, spring; assay: Test D postemergence; assay type: in vivo, Hordeum vulgare; settings: scale 0 to 100
Procedure, shortened: as §1

[14] = test system: barley, winter; assay: Test D postemergence; assay type: in vivo, Hordeum vulgare; settings: scale 0 to 100
Procedure, shortened: as §1

[15] = test system: wheat, spring; assay: Test D postemergence; assay type: in vivo, Triticum aestivum; settings: scale 0 to 100
Procedure, shortened: as §1

[16] = test system: wheat, winter; assay: Test D postemergence; assay type: in vivo, Triticum aestivum; settings: scale 0 to 100
Procedure, shortened: as §1

[17] = test system: oat, wild; assay: Test D postemergence; assay type: in vivo, Avena fatua; settings: scale 0 to 100
Procedure, shortened: as §1

SMILES: CCCc1cc(C(=O)NC(C)C)nn1Cc1cc(C(F)(F)F)nn1C [Compound 201]
- Plant response rating, Canarygrass ([1]; 31 g ai/ha): 60
- Plant response rating, Canarygrass ([1]; 62 g ai/ha): 100
- Plant response rating, Canarygrass ([1]; 125 g ai/ha): 100
- Plant response rating, Canarygrass ([1]; 250 g ai/ha): 100
- Plant response rating, Deadnettle ([2]; 31 g ai/ha): 100
- Plant response rating, Deadnettle ([2]; 62 g ai/ha): 100
- Plant response rating, Deadnettle ([2]; 125 g ai/ha): 100
- Plant response rating, Deadnettle ([2]; 250 g ai/ha): 100
- Plant response rating, Ryegrass, Italian ([3]; 62 g ai/ha): 65
- Plant response rating, Ryegrass, Italian ([3]; 125 g ai/ha): 85
- Plant response rating, Ryegrass, Italian ([3]; 250 g ai/ha): 100
- Plant response rating, Kochia ([4]; 62 g ai/ha): 100
- Plant response rating, Kochia ([4]; 125 g ai/ha): 100
- Plant response rating, Kochia ([4]; 250 g ai/ha): 100
- Plant response rating, Lambsquarters ([5]; 62 g ai/ha): 90
- Plant response rating, Lambsquarters ([5]; 125 g ai/ha): 100
- Plant response rating, Lambsquarters ([5]; 250 g ai/ha): 100
- Plant response rating, Buckwheat, Wild ([6]; 31 g ai/ha): 15
- Plant response rating, Buckwheat, Wild ([6]; 62 g ai/ha): 100
- Plant response rating, Buckwheat, Wild ([6]; 250 g ai/ha): 100
- Plant response rating, Mustard, Wild ([7]; 62 g ai/ha): 100
- Plant response rating, Mustard, Wild ([7]; 125 g ai/ha): 100
- Plant response rating, Mustard, Wild ([7]; 250 g ai/ha): 100
- Bromegrass, Downy plant response rating ([8]; Postemergence, 31 g ai/ha): 30
- Bromegrass, Downy plant response rating ([8]; Postemergence, 125 g ai/ha): 35
- Bromegrass, Downy plant response rating ([8]; Postemergence, 250 g ai/ha): 50
- Bromegrass, Downy plant response rating ([8]; postemergence, 62 g ai/ha): 30
- Field Poppy plant response rating ([9]; Postemergence, 31 g ai/ha): 55
- Field Poppy plant response rating ([9]; Postemergence, 125 g ai/ha): 60
- Field Poppy plant response rating ([9]; Postemergence, 250 g ai/ha): 65
- Field Poppy plant response rating ([9]; postemergence, 62 g ai/ha): 55
- Foxtail, Green plant response rating ([10]; Postemergence, 31 g ai/ha): 30
- Foxtail, Green plant response rating ([10]; Postemergence, 125 g ai/ha): 40
- Foxtail, Green plant response rating ([10]; Postemergence, 250 g ai/ha): 55
- Foxtail, Green plant response rating ([10]; postemergence, 62 g ai/ha): 30
- Lambsquarters plant response rating ([11]; Postemergence, 31 g ai/ha): 75
- Lambsquarters plant response rating ([11]; Postemergence, 125 g ai/ha): 90
- Lambsquarters plant response rating ([11]; Postemergence, 250 g ai/ha): 90
- Lambsquarters plant response rating ([11]; postemergence, 62 g ai/ha): 75
- Speedwell plant response rating ([12]; Postemergence, 31 g ai/ha): 70
- Speedwell plant response rating ([12]; Postemergence, 125 g ai/ha): 70
- Speedwell plant response rating ([12]; Postemergence, 250 g ai/ha): 100
- Speedwell plant response rating ([12]; postemergence, 62 g ai/ha): 70
- Barley, Spring plant response rating ([13]; Postemergence, 31 g ai/ha): 25
- Barley, Spring plant response rating ([13]; Postemergence, 125 g ai/ha): 25
- Barley, Spring plant response rating ([13]; Postemergence, 250 g ai/ha): 40
- Barley, Spring plant response rating ([13]; postemergence, 62 g ai/ha): 25
- Barley, Winter plant response rating ([14]; Postemergence, 31 g ai/ha): 20
- Barley, Winter plant response rating ([14]; Postemergence, 125 g ai/ha): 25
- Barley, Winter plant response rating ([14]; Postemergence, 250 g ai/ha): 35
- Barley, Winter plant response rating ([14]; postemergence, 62 g ai/ha): 20
- Wheat, Spring plant response rating ([15]; Postemergence, 31 g ai/ha): 15
- Wheat, Spring plant response rating ([15]; Postemergence, 125 g ai/ha): 15
- Wheat, Spring plant response rating ([15]; Postemergence, 250 g ai/ha): 30
- Wheat, Spring plant response rating ([15]; postemergence, 62 g ai/ha): 15
- Wheat, Winter plant response rating ([16]; Postemergence, 31 g ai/ha): 20
- Wheat, Winter plant response rating ([16]; Postemergence, 125 g ai/ha): 25
- Wheat, Winter plant response rating ([16]; Postemergence, 250 g ai/ha): 40
- Wheat, Winter plant response rating ([16]; postemergence, 62 g ai/ha): 20
- Oat, Wild plant response rating ([17]; Postemergence, 31 g ai/ha): 25
- Oat, Wild plant response rating ([17]; Postemergence, 125 g ai/ha): 50
- Oat, Wild plant response rating ([17]; Postemergence, 250 g ai/ha): 70
- Oat, Wild plant response rating ([17]; postemergence, 62 g ai/ha): 25
